Structures can show the parent of a compound that is named as a salt. Where two headings read alike, the source gives them in different places.
Tests used:
[1] = intrathecal delivery; cited from earlier work
[2] = biological target: dopamine 1 receptor peptide D1DR 96–98 FCN (Homo sapiens, UniProt P21728); test: biochemical
[3] = biological target: T1, histamine 1 receptor peptide H1HR 77–87 GAVVMPMNILYL (Homo sapiens, UniProt P35367); test: biochemical; type: binding; settings: UV spectrophotometry; single value, or first (higher-affinity) value of a cell a/b; read-out: Kd (µM) H1HR 77–87 […]
T1 construct: H1HR 77–87 GAVVMPMNILYL; purchased RS Synthesis (Louisville, KY, USA); host or cells: chemical synthesis

[4] = biological target: T2, histamine 1 receptor peptide HIHR 177–183 RDKCETD (Homo sapiens, UniProt P35367, E177R); test: biochemical; type: binding; settings: UV spectrophotometry; read-out: Kd (µM) HIHR 177–183 RDKCETD
T2 construct: HIHR 177–183 RDKCETD; purchased RS Synthesis (Louisville, KY, USA); host or cells: chemical synthesis

[5] = biological target: T3, histamine 1 receptor peptide H1HR 105–108 SMDY (Homo sapiens, UniProt P35367); test: biochemical; type: binding; settings: UV spectrophotometry; single value, or first (higher-affinity) value of a cell a/b; read-out: Kd (µM) H1HR 105–108 SMDY
T3 construct: H1HR 105–108 SMDY; purchased RS Synthesis (Louisville, KY, USA); host or cells: chemical synthesis

[6] = biological target: Opioid Receptor (mu opioid receptor peptides) (Homo sapiens, UniProt P35372); test: Overall pattern of binding: Opioid Receptor peptides
Sequence of Opioid Receptor (mu opioid receptor peptides) (P35372 with tags, fused parts or gaps): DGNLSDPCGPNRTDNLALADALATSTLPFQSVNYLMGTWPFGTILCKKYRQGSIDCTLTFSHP
Experimental: (§1) The method used was ultraviolet spectrophotometry, which is a sensitive way to test for the binding of pairs of molecules. Binding data obtained using this method have previously been validated by direct comparison to results of nuclear magnetic resonance, circular dichroism, capillary electrophoresis, and other physicochemical methods (e.g., [51, 87, 88, 89, 90]).
(§2) For each individual test, the concentration of the stock solution was calculated and then diluted to a 10 µM solution.
(§3) Thus, the final concentration of receptor peptide in each well varied from 0.5 mM to 0.05 pM while the other compound was held fixed at 5 µM.
The method of calculating binding constants was to measure the absorbance (minus the absorbance of the buffer) of 100 µL of each compound by itself diluted by 100 µL of buffer at a given wavelength (in this case at 200 nm) at the range of concentrations utilized in the experiments. The average of the resulting values is calculated. (If the experiments are run properly, there is very little variance—a couple of percent. If there was more variance than that, the experiment was re-run.) An “expected” value is calculated following Beer’s law, by adding the absorbances of each pair of compounds (peptide plus small molecule). The actual chemical combinations of these molecules was then run under identical conditions.
The difference between the “expected” and actual values was determined at each concentration of the varied compound. This difference was then plotted against the concentration of the varied compound. […] The binding constant was approximated by using the inflection point of the binding curve (i.e., the point at which the dissociation and association of the two molecules was equal). […] All data were analyzed using Microsoft Excel.
Because the resulting absorbances are the differences between the independently measured absorbances, it is not possible to calculate error bars or to perform statistics on the resulting values.

[7] = biological target: T4, beta 2 adrenergic receptor peptide B2AR 105–108 WCEF (Homo sapiens, UniProt P07550); test: biochemical; type: binding
T4 construct: B2AR 105–108 WCEF; purchased RS Synthesis (Louisville, KY, USA); host or cells: chemical synthesis

[8] = biological target: oxidized glutathione (Glut OX, ECG-ECG); test: UV spectrophotometry binding to oxidized glutathione; settings: UV spectrophotometry; single value, or first (higher-affinity) value of a cell a/b; read-out: Kd (µM) Glut OX ECG-ECG
[9] = biological target: reduced glutathione (Glut RED, ECG); test: UV spectrophotometry binding to reduced glutathione; settings: UV spectrophotometry at 200 nm, pH 7.00 phosphate-buffered saline, ca. 24 °C
[10] = biological target: T5, beta 2 adrenergic receptor peptide B2AR 97–103 KMWTFGN (Homo sapiens, UniProt P07550); test: biochemical; type: binding
T5 construct: B2AR 97–103 KMWTFGN; purchased RS Synthesis (Louisville, KY, USA); host or cells: chemical synthesis

[11] = test system: glutathione S-transferase A-5 and CYP3A2 expression in rat liver; parameters: method as in PMID 20487198; settings: exposure to opioid; cited from earlier work
Glutathione = test: Overall pattern of binding: Glutathione (reduced and oxidized)
[12] = biological target: T6, beta 2 adrenergic receptor peptide B2AR 183–185 NCY (Homo sapiens, UniProt P07550); test: biochemical; type: binding; settings: Figure 4
T6 construct: B2AR 183–185 NCY; purchased RS Synthesis (Louisville, KY, USA); host or cells: chemical synthesis

[13] = biological target: Dopamine Receptor (dopamine 1 receptor peptides) (Homo sapiens, UniProt P21728); test: Overall pattern of binding: Dopamine Receptor peptides
Sequence of Dopamine Receptor (dopamine 1 receptor peptides) (P21728 with tags, fused parts or gaps): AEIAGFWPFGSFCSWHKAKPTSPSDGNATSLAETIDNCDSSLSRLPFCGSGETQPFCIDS
Experimental: as §1, §2, §3
(§4) The method of calculating binding constants was to measure the absorbance (minus the absorbance of the buffer) of 100 µL of each compound by itself diluted by 100 µL of buffer at a given wavelength (in this case at 200 nm) at the range of concentrations utilized in the experiments. The average of the resulting values is calculated. (If the experiments are run properly, there is very little variance—a couple of percent. If there was more variance than that, the experiment was re-run.) An “expected” value is calculated following Beer’s law, by adding the absorbances of each pair of compounds (peptide plus small molecule). […]
(§5) The difference between the “expected” and actual values was determined at each concentration of the varied compound. […]

[14] = biological target: Adrenergic Receptor (beta 2 adrenergic receptor peptides) (Homo sapiens, UniProt P07550); test: Overall pattern of binding: Adrenergic Receptor peptides
Sequence of Adrenergic Receptor (beta 2 adrenergic receptor peptides) (P07550 with tags, fused parts or gaps): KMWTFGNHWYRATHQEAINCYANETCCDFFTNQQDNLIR
Experimental: as §1, §2, §3, §4, §5

receptor peptides tested = test: UV spectrophotometry binding to all peptides tested (summary)
[15] = biological target: Histamine Receptor (histamine 1 receptor peptides) (Homo sapiens, UniProt P35367); test: biochemical; type: binding; settings: first symbol of the cell
Sequence of Histamine Receptor (histamine 1 receptor peptides) (P35367 with tags, fused parts or gaps): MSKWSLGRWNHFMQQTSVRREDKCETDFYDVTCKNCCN

Compound	Kd [3]	Kd [4]	Kd [5]	Kd ([6]; first symbol of the cell)	Kd [8]	Kd [9]	binding to adrenergic receptor peptide 183–185 (NCY), in words [12]	observable affinity of the peptides tested, in words (receptor peptides tested)	Kd [15]	other results
CN1CC[C@]23c4c5ccc(O)c4O[C@H]2[C@@H](O)C=C[C@H]3[C@H]1C5 [Morphine, morphine sulfate]	–	–	–	–	–	–	–	–	–	transient cerebrospinal fluid concentrations [1]: approximately 25 µM; Kd [2]: 25 µM
NCCc1c[nH]c2ccc(O)cc12 [Serotonin, serotonin]	50 µM	60 µM	120 µM	> 60 µM	> 1000 µM	70 µM	–	–	–	Kd [7]: 45 µM; Kd [10]: 430 µM
COc1ccc2c3c1O[C@H]1C(=O)CC[C@@]4(O)[C@@H](C2)N(C)CC[C@]314 [oxycodone]	–	–	–	–	–	–	–	–	–	expression in rat liver of glutathione S-transferase A-5 [11]: greater than six-fold increase; expression of the cytochrome enzyme CYP3A2 [11]: decreased seven-fold
OC[C@H]1OC(O)[C@H](O)[C@@H](O)[C@@H]1O (stereo partly drawn) [Glucose, glucose]	–	> 1000 µM	–	–	> 1000 µM	> 1000 µM	No binding was observed	none of the peptides tested had observable affinity	> 60 µM	binding to either reduced or oxidized glutathione, in words (Glutathione): do not bind appreciably; Kd [13]: > 60 µM; Kd [6]: > 60 µM; Kd [14]: > 60 µM
CC(=O)OCC[N+](C)(C)C [Acetylcholine, acetylcholine]	> 1000 µM	> 1000 µM	> 1000 µM	> 60 µM	> 1000 µM	> 1000 µM	No binding was observed	none of the peptides tested had observable affinity	> 60 µM	Kd ([13]; first symbol of the cell): > 60 µM; Kd ([14]; first symbol of the cell): > 60 µM
